# Where a name gives a salt, the structure may show the parent alone.
# What was measured:
# [1] = solubility of sildenafil forms in water; format: physicochemical
# solubility in saliva = format: physicochemical
solubility of salt form ([1]; medium not stated),solubility in water ([1]; water),solubility in saliva (solubility in saliva),SMILES
highly soluble,–,–,CCCc1nn(C)c2c(=O)[nH]c(-c3cc(S(=O)(=O)N4CCN(C)CC4)ccc3OCC)nc12 [sildenafil citrate]
–,extremely low solubility,extremely low solubility,"CCCc1nn(C)c2c(=O)[nH]c(-c3cc(S(=O)(=O)N4CCN(C)CC4)ccc3OCC)nc12 [sildenafil free base, 5-[2-ethoxy-5-(4-methylpiperazin-1-ylsulphonyl)-phenyl] -1,6-dihydro-1-methyl-3-propylpyrazolo [4,3-d]pyrimidin-7-one]"
